{"source": "patent US10563272B2", "about": "“Compositions comprising Metarhizium fungi and use thereof as a pesticide” (Cotton Research and Development Corporation, priority 2015, dated 2020)", "key": {"[1]": {"tested_on": "green vegetable bugs (GVB)", "experiment": "Rate trial on conventional cotton refuge crops, Undabri 2012 (Example 12): green vegetable bugs", "type": "in vivo, Nezara viridula", "details": "14 DAT (P<0.01) and 21 DAT (P<0.05); DAT 511 500 mL/ha and 1 L/ha, fipronil", "description": "(§1) This trial was conducted using commercial conventional cotton refuge crops at Undabri in Goondiwindi (28° 55'S, 150° 31′E) from 14 Feb. to 6 Mar. 2012.\n(§2) The efficacy of the following treatments against green mirids, green vegetable bugs and predatory insects was assessed: • 1. 250 mL/ha DAT 511 spore in oil (1×10^7 spores/ml); • 2. 500 mL/ha DAT 511 spore in oil (1×10^7 spores/ml); • 3. 1 L/ha DAT 511 spore in oil (1×10^7 spores/ml); • 4. 62.5 mL/ha fipronil; and • 5. Unsprayed (negative control).\n(§3) The plots were arranged in a randomized complete block design with three replicates per treatment. Each replicated plot measured 8 m (8 rows) wide and 250 m long.\n(§4) Foliar applications of each treatment were made on 14 Feb. 2012 using a ground spray rig fitted with flat fan nozzles to achieve a droplet size of 200 μm. All insecticide formulations were water miscible. All treatments were applied using a spray volume of 100 L/ha. The untreated (negative control) plot was left unsprayed and the plot treated with synthetic insecticide received two applications similar to, and on the same date as, the plots treated with the fungus.\n(§5) For each replicate, visual counts of adults and nymphs of green mirids, green vegetable bugs (GVB), apple dimpling bugs and predatory insects on whole cotton plants were made in a randomly selected 1 m length of row of cotton plants (i.e. 6 m per treatment). […]"}, "apple dimpling bugs": {"tested_on": "apple dimpling bugs", "experiment": "Rate trial on conventional cotton refuge crops, Undabri 2012 (Example 12): apple dimpling bugs", "type": "in vivo, Campylomma liebknechti", "description": "as §1, §2, §3, §4, §5"}, "[2]": {"experiment": "Foliar spray trial on Bollgard II cotton, Norwood 2010-11 (Example 7): yield", "type": "in vivo", "details": "BC 667/DAT 511 0.50 L/ha, fipronil 62.5 mL/ha", "description": "(§6) The study evaluated the efficacy of the following treatments against green mirids, green vegetable bugs and predatory insects: • 1. 500 mL/ha BC 667 spore in oil (1×10^7 spores/ml); • 2. 500 mL/ha DAT 511 spore in oil (1×10^7 spores/ml); • 3. 62.5 mL/ha Fipronil (conventional insecticide); and • 4. Unsprayed (control).\n(§7) The treatment plots were arranged in a randomized complete block design with four replicates per treatment. Each replicated plot measured 0.5 ha. Foliar application of each treatment was made on 18 Jan. 2011 using a ground spray rig fitted with flat fan nozzles to achieve a droplet size of 80 250 μm. The treatment was applied in the mornings when temperature was between 20° C. and 28° C. The timing of treatment was based on an economic threshold of 0.5 green mirids per metre, the IPM guideline and recommendation by CottonLogic.\nCotton in each treated plot was harvested separately using a four-row picker (John Deere, Model 9965, USA) at the end of the season and the average lint yields (bales/acre) were compared between treatments."}, "spiders": {"tested_on": "spiders", "experiment": "Rate trial on conventional cotton refuge crops, Undabri 2012 (Example 12): spiders", "type": "in vivo, Lycosa spp., Oxyopes spp., Salticidae spp., Araneus spp.", "details": "DAT 511 250 mL/ha, 500 mL/ha and 1.0 L/ha; fipronil 62.5 mL/ha", "description": "as §1, §2, §3, §4, §5"}, "predatory beetles": {"tested_on": "predatory beetles", "experiment": "Foliar spray trial on Bollgard II cotton, Norwood 2010-11 (Example 7): predatory beetles", "type": "in vivo, Coleoptera (Coccinellidae, Melyridae)", "details": "fipronil 62.5 mL/ha; for number of predatory beetles per meter: 1st spray, BC 667/DAT 511 0.50 L/ha; for number of predatory beetles per metre: 2nd spray, BC 667/DAT 511 0.5 L/ha", "description": "The trial was conducted on commercial Bollgard II® cotton crops at Norwood near Moree, NSW from 5 Dec. 2010 to 19 Feb. 2011. The cotton was at the early squaring stage, when it was attractive to green mirids (Khan et al. 2004).\nas §6, §7\nPre-treatment counts of green mirid adults and nymphs, predatory beetles, predatory bugs, predatory lacewings and spiders were made by visual inspection of whole cotton plants. Both adults and nymphs of the beneficial insects were counted. Plants were assessed in randomly selected one-metre lengths of row of each treatment replicate (i.e. four metres per treatment). In all, two spray applications of each treatment were made. The first spray was made on 18 Jan. 2011. Post-treatment counts of the first spray application were taken 3, 7 and 14 days after treatment (DAT) (first spray). A second spray application was done on 1 Feb. 2011 when green mirid adults plus nymphs reached the threshold of 0.5 per metre. Post-treatment counts of the second spray application were taken 3, 7, 14, 21 and 28 DAT. Data are expressed as numbers of individuals of that species counted per metre for each treatment."}}, "data": [{"compound": "N#Cc1nn(-c2c(Cl)cc(C(F)(F)F)cc2Cl)c(N)c1[S+]([O-])C(F)(F)F", "note": "(stereo not drawn) [fipronil]", "values": [{"measurement": "green vegetable bugs per metre on unsprayed plots relative to treated plots", "setting": "[1]", "result": "significantly higher"}, {"measurement": "apple dimpling bug adults per metre versus the unsprayed plot", "setting": "apple dimpling bugs; 3, 7, 14 and 21 DAT, P<0.01", "result": "significantly fewer"}, {"measurement": "apple dimpling bug nymphs per metre versus unsprayed plots", "setting": "apple dimpling bugs; 7 DAT only, P<0.05", "result": "significantly lower"}, {"measurement": "Yields (bales/acre)", "setting": "[2]", "result": "4.67 ± 0.63", "unit": "a bales/acre"}, {"measurement": "effect on number of spiders per metre", "setting": "spiders", "result": "significantly lower"}, {"measurement": "number of predatory beetles per meter", "setting": "predatory beetles; 3 DAT", "result": "0.00 ± 0.00", "unit": "a per meter"}, {"measurement": "number of predatory beetles per meter", "setting": "predatory beetles; 7 DAT", "result": "0.00 ± 0.00", "unit": "a per meter"}, {"measurement": "number of predatory beetles per meter", "setting": "predatory beetles; 14 DAT", "result": "0.00 ± 0.00", "unit": "a per meter"}, {"measurement": "number of predatory beetles per meter", "setting": "predatory beetles; pre-spray counts 18 Jan. 2011", "result": "0.67 ± 0.33", "unit": "a per meter"}, {"measurement": "number of predatory beetles per metre", "setting": "predatory beetles; 3 DAT", "result": "0.33 ± 0.33", "unit": "a per metre"}, {"measurement": "number of predatory beetles per metre", "setting": "predatory beetles; 7 DAT", "result": "0.33 ± 0.33", "unit": "a per metre"}, {"measurement": "number of predatory beetles per metre", "setting": "predatory beetles; 14 DAT", "result": "0.00 ± 0.00", "unit": "a per metre"}, {"measurement": "number of predatory beetles per metre", "setting": "predatory beetles; 21 DAT", "result": "1.00 ± 0.58", "unit": "a per metre"}, {"measurement": "number of predatory beetles per metre", "setting": "predatory beetles; 28 DAT", "result": "0.67 ± 0.33", "unit": "a per metre"}, {"measurement": "number of predatory beetles per metre", "setting": "predatory beetles; pre-spray counts 1 Feb. 2011", "result": "0.00 ± 0.00", "unit": "a per metre"}]}]}
